Test results from patent publication US6383521B1, “Wondonin A and process for preparing the same” (Korea Ocean Research and Development, priority 2000, dated 2002).

Assays:
[1] = tested on: Human umbilical vascular endothelial cells (HUVEC); assay: Invasion assay of HUVEC through Matrigel/Type IV collagen coated filter; type: cell-based; settings: 10 μg/ml Wondonin A medium, bFGF, 18 hours
Procedure: Powdered medium 199 (M 199, Sigma Chemical Co., U.S.A.) and 2.2 g (per liter) of sodium bicarbonate was dissolved in double distilled water, pH of the medium was adjusted to 7.2 with HCl, and followed by sterile filtration on a […] Millipore filter. Then, a medium was finally prepared by supplementing, just before use, with 20% (w/v) FBS (fetal bovine serum ), 1% (w/v) Penicillin-Streptomycin (P-S), 3 ng/ml bFGF (basic fibroblast growth factor, a growth factor for angiogenesis) and 100 μg/ml heparin. Human umbilical vascular endothelial cells (“HUVEC”) purchased from ATCC (American Type Culture Collection) were seeded to 6 ml of the medium thus prepared in a T25 flask (25 cm^2) and grown to form a monolayer in an incubator at 37° C. under an environment of 5% (v/v) CO2 and saturated humidity, and then subcultured in a medium containing 0.05% (w/v) Trypsin-EDTA.
For invasion assay, lower surface of the polycarbonate filter (pore size: 8 μm) equipped in an insert chamber was coated with 5 μg of Type IV collagen and upper surface of the filter was coated with 25 μg of Matrigel (Collaborative Research, Inc., Waltham, Mass., U.S.A.). […] After staining of the fixed cells with haematoxillin and eosin, Matrigel was detached from the filter and HUVEC cells which have passed through the filter were counted. […]

[2] = tested on: vascular endothelial cells; assay: Viability of vascular endothelial cells (Trypan Blue); type: cell-based, Human; settings: 48 hour incubation, medium without FBS
Procedure: Vascular endothelial cells grown on Example 3 were placed onto a 24-well plate with 5×10^4 cells/well starting cell number in 1 ml (per well) of the same medium as in Example 3 except for containing 10% (v/v) FBS, and incubated at 37° C. under an environment of 5% (v/v) CO2 for 24 hours to the level of 80% cell confluency. Then, cells were rinsed with 1 ml of PBS and 1 ml of the same medium without FBS was added and then Wondonin A was added to reach the concentrations of […], respectively. After 48 hour incubation, medium was removed and cells were harvested by trypsinization. Cells were stained in a medium containing 0.4% (w/v) Trypan Blue at room temperature and then counted with haemacytometer. The cell viability was assessed based on total cell number and stained cell number (see: Table 1).

[3] = tested on: chick embryo chorioallantoic membrane; assay: Chick embryo chorioallantoic membrane assay; type: in vivo; settings: ratio of embryos with avascular zone to total embryos; cover slip on CAM, 2 days incubation
Procedure: On day 3.5, a part of egg shell was cracked gently, and on day 4.5, a cover slip containing Wondonin A (prepared by drying […] Wondonin A in methanol on a cover slip) or a control cover slip (prepared by drying 2 μl of methanol on a cover slip) was placed on the chorioallantoic membrane (CAM) through the crack and then the crack was sealed. After incubation for 2 days, 10% fat emulsion was injected to CAM, which was examined under a microscope. The embryos with a clear avascular zone (inhibition of angiogenesis) were counted and inhibitory effect of Wondonin A on angiogenesis was evaluated by calculating the ratio of the number of embryo with avascular zone to the total number of embryo tested (see: Table 2).

[4] = Physicochemical data of Wondonin A
Description: The spectrophotomeric data of Wondonin A are as follows: […]

- solubility in polar organic solvents ([4]; methanol and dimethylsulfoxide): highly soluble
- stability ([4]; pale-yellow semi-solid at room temperature): stable
SMILES: CN(C)CCc1cn(C(c2ccc(O)c(O)c2)C2Oc3ccc(/C=C/OS(=O)(=O)[O-])cc3O2)cn1.[Na+] (stereo not drawn) [Wondonin A]
- reduction in a cell number passed through the filter compared to the control group [1]: 66%
- Viability (%) ([2]; Wondonin A 1 μg/ml): 98%
- Viability (%) ([2]; Wondonin A 10 μg/ml): 97%
- Inhibition of angiogenesis (%) [3]: 89%
